Test results: ChEMBL document CHEMBL5108046, “Discovery of Novel Pyrazole-Based KDM5B Inhibitor TK-129 and Its Protective Effects on Myocardial Remodeling and Fibrosis” (J Med Chem, 2022)
Calls of active or inactive are those of the source. No cut-off for these calls is given here.

Columns and labels:
[1] = Oral bioavailability in Sprague-Dawley rat at 10 mg/kg measured upto 24 hrs; assay type: ADME, organism-based; conditions: in vivo
[2] = test system: Fibroblast of cardiac tissue; test: Reversal of Ang II-induced increase in alpha-SMA level in neonatal rat cardiac fibroblasts by Western blot analysis; assay type: functional, cell-based
[3] = Acute toxicity in C57BL/6 mouse assessed as effect on spleen at 2 g/Kg by hematoxylin and eosin staining based histopathological analysis; assay type: tissue-based; conditions: in vivo, 2000 mg/kg
[4] = Tmax in Sprague-Dawley rat at 10 mg/kg, po measured upto 24 hrs; assay type: ADME, organism-based; conditions: in vivo
[5] = test system: Fibroblast of cardiac tissue; test: Reversal of Ang II-induced decrease in H3K4me3 level in neonatal rat cardiac fibroblasts by Western blot analysis; assay type: functional, cell-based
[6] = Cytotoxicity against neonatal rat Cardiomyocytes assessed as cell survival rate at 10 uM measured after 48 hrs by MTT assay; assay type: toxicity, cell-based, Cardiac muscle cell; conditions: read-out: Activity
Mus musculus [7] = test: Anti-myocardial remodeling function in isoproterenol-induced C57BL/6 mouse model assessed as increase in shortening fraction at 20 mg/kg by one-time gavage for 21 days; assay type: functional; conditions: time 21 day
[8] = Acute toxicity in C57BL/6 mouse assessed as effect on kidney at 2 g/Kg by hematoxylin and eosin staining based histopathological analysis; assay type: tissue-based; conditions: in vivo, 2000 mg/kg
Mus musculus [9] = test: Anti-myocardial remodeling function in isoproterenol-induced C57BL/6 mouse model assessed as decrease in heart weight to body weight ratio at 50 mg/kg by one-time gavage for 21 days; assay type: functional; conditions: time 21 day
Mus musculus [10] = test: Anti-myocardial remodeling function in isoproterenol-induced C57BL/6 mouse model assessed as decrease in cardiac hypertrophy BNP protein at 50 mg/kg by one-time gavage for 21 days relative to control; assay type: functional; set-up: scale not given: the % may be the effect or the level left; conditions: time 21 day
[11] = test system: Fibroblast of cardiac tissue; test: Antimigratory activity in neonatal rat cardiac fibroblasts assessed as fold decrease in Ang II-induced migration measured after 48 hrs by scratch test; assay type: functional
[12] = Half life in Sprague-Dawley rat at 10 mg/kg, po measured upto 24 hrs; assay type: ADME, organism-based; conditions: in vivo
[13] = Cytotoxicity against neonatal rat cardiac fibroblast assessed as cell survival rate at 10 uM measured after 48 hrs by MTT assay relative to control; assay type: toxicity, cell-based, Fibroblast of cardiac tissue; conditions: neonatal rat cardiac fibroblasts, read-out: Activity
[14] = test system: Fibroblast of cardiac tissue; test: Antimigratory activity in neonatal rat cardiac fibroblasts assessed as fold decrease in Ang II-induced migration measured after 48 hrs by transwell test (reference value: 1.8 fold); assay type: functional
[15] = Cmax in Sprague-Dawley rat at 10 mg/kg, po measured upto 24 hrs; assay type: ADME, organism-based; set-up: dose 10 mg/kg, time < 24 hrs, route po; conditions: in vivo
[16] = biological target: Lysine-specific demethylase 5A (Homo sapiens, UniProt P29375); test: Inhibition of KDM5A (unknown origin) incubated for 30 mins by HRTF assay
Chain of Lysine-specific demethylase 5A (P29375 whole entry): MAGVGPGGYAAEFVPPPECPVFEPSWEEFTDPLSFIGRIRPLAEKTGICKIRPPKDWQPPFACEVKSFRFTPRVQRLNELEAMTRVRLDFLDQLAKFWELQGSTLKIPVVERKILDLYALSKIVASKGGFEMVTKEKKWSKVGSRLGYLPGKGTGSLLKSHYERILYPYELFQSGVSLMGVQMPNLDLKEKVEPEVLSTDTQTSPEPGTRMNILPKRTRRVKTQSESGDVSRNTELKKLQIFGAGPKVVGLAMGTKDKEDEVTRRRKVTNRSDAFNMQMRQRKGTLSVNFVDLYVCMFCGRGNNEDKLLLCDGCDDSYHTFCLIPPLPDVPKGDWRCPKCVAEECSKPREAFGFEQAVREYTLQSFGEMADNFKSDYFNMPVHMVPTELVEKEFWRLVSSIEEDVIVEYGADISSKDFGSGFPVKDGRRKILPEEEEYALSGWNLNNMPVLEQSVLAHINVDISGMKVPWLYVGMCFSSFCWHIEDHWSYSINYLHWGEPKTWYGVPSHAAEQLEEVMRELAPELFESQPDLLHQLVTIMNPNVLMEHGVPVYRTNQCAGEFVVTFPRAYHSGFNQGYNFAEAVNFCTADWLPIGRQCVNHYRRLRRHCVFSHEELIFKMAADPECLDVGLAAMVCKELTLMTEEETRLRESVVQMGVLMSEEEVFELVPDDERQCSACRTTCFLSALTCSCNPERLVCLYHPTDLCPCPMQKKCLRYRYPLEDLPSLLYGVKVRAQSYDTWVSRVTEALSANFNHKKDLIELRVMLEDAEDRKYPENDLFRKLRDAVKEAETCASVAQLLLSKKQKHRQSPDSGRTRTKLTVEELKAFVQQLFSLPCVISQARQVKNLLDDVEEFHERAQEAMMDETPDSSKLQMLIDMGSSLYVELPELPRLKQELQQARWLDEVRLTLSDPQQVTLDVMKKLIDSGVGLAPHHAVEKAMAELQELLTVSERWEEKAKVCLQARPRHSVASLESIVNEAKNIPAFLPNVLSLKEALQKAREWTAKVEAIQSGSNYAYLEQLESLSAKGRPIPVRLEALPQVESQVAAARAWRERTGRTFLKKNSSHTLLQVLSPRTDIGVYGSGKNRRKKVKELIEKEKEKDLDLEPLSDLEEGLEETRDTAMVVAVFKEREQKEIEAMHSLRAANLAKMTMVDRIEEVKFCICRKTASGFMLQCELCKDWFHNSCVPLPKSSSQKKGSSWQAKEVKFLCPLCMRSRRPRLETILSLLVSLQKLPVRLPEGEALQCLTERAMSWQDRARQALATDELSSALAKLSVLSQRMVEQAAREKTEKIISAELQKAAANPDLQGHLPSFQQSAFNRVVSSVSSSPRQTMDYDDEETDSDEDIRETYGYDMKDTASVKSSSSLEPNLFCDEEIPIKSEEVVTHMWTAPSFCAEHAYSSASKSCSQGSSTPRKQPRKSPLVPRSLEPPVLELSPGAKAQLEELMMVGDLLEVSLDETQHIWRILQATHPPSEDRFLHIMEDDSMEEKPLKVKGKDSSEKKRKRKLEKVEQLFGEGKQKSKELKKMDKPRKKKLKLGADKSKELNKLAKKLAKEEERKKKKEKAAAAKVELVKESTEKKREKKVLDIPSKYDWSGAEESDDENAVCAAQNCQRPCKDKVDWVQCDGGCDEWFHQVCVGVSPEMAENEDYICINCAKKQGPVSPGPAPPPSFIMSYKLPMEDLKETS

[17] = Volume of distribution at steady state in Sprague-Dawley rat at 2 mg/kg, iv measured upto 24 hrs; assay type: ADME, organism-based; conditions: in vivo, read-out: Vdss
[18] = Acute toxicity in C57BL/6 mouse assessed as effect on heart at 2 g/Kg by hematoxylin and eosin staining based histopathological analysis; assay type: tissue-based; conditions: in vivo, 2000 mg/kg
Mus musculus [19] = test: Anti-myocardial remodeling function in isoproterenol-induced C57BL/6 mouse model assessed as decrease in cardiac hypertrophy ANP protein at 50 mg/kg by one-time gavage for 21 days relative to control; assay type: functional; set-up: scale not given: the % may be the effect or the level left; conditions: time 21 day
Mus musculus [20] = test: Anti-myocardial remodeling function in isoproterenol-induced C57BL/6 mouse model assessed as increase in ejection fraction at 50 mg/kg by one-time gavage for 21 days; assay type: functional; conditions: time 21 day
[21] = AUC in Sprague-Dawley rat at 10 mg/kg, po measured upto 24 hrs; assay type: ADME, organism-based; set-up: dose 10 mg/kg, time < 24 hrs, route po; conditions: in vivo
Mus musculus [22] = test: Anti-myocardial remodeling function in isoproterenol-induced C57BL/6 mouse model assessed as decrease in heart weight to body weight ratio at 20 mg/kg by one-time gavage for 21 days; assay type: functional; conditions: time 21 day
[23] = Cmax in Sprague-Dawley rat at 2 mg/kg, iv measured upto 24 hrs; assay type: ADME, organism-based; set-up: time < 24 hrs, dose 2 mg/kg, route iv; conditions: in vivo
Mus musculus [24] = test: Anti-myocardial remodeling function in isoproterenol-induced C57BL/6 mouse model assessed as decrease in cardiac hypertrophy BNP protein at 20 mg/kg by one-time gavage for 21 days relative to control; assay type: functional; set-up: scale not given: the % may be the effect or the level left; conditions: time 21 day
Mus musculus [25] = test: Anti-myocardial remodeling function in isoproterenol-induced C57BL/6 mouse model assessed as increase in ejection fraction at 20 mg/kg by one-time gavage for 21 days; assay type: functional; conditions: time 21 day
[26] = Acute toxicity in C57BL/6 mouse assessed as effect on lung at 2 g/Kg by hematoxylin and eosin staining based histopathological analysis; assay type: tissue-based; conditions: in vivo, 2000 mg/kg
Mus musculus [27] = test: Anti-myocardial remodeling function in isoproterenol-induced C57BL/6 mouse model assessed as decrease in heart weight to […] ratio at 20 mg/kg by one-time gavage for 21 days; assay type: functional; conditions: time 21 day
[28] = Half life in Sprague-Dawley rat at 2 mg/kg, iv measured upto 24 hrs; assay type: ADME, organism-based; conditions: in vivo
[29] = test system: Fibroblast of cardiac tissue; test: Reversal of Ang II-induced proliferation in neonatal rat cardiac fibroblasts measured after 48 hrs by MTT assay; assay type: functional, cell-based
[30] = Acute toxicity in C57BL/6 mouse assessed as survival at 2 g/Kg by one-time gavage measured after 2 weeks; conditions: in vivo, po, 2000 mg/kg, 336 h
[31] = test system: Fibroblast of cardiac tissue; test: Reversal of Ang II-induced increase in […] level in neonatal rat cardiac fibroblasts by Western blot analysis; assay type: functional, cell-based
Mus musculus [32] = test: Anti-myocardial remodeling function in isoproterenol-induced C57BL/6 mouse model assessed as decrease in heart weight to […] ratio at 50 mg/kg by one-time gavage for 21 days; assay type: functional; conditions: time 21 day
[33] = Clearance in Sprague-Dawley rat at 2 mg/kg, iv measured upto 24 hrs; assay type: ADME, organism-based; conditions: in vivo
[34] = biological target: Lysine-specific demethylase 5C (Homo sapiens, UniProt P41229); test: Inhibition of KDM5C (unknown origin) incubated for 30 mins by HRTF assay
Chain of Lysine-specific demethylase 5C (P41229 whole entry): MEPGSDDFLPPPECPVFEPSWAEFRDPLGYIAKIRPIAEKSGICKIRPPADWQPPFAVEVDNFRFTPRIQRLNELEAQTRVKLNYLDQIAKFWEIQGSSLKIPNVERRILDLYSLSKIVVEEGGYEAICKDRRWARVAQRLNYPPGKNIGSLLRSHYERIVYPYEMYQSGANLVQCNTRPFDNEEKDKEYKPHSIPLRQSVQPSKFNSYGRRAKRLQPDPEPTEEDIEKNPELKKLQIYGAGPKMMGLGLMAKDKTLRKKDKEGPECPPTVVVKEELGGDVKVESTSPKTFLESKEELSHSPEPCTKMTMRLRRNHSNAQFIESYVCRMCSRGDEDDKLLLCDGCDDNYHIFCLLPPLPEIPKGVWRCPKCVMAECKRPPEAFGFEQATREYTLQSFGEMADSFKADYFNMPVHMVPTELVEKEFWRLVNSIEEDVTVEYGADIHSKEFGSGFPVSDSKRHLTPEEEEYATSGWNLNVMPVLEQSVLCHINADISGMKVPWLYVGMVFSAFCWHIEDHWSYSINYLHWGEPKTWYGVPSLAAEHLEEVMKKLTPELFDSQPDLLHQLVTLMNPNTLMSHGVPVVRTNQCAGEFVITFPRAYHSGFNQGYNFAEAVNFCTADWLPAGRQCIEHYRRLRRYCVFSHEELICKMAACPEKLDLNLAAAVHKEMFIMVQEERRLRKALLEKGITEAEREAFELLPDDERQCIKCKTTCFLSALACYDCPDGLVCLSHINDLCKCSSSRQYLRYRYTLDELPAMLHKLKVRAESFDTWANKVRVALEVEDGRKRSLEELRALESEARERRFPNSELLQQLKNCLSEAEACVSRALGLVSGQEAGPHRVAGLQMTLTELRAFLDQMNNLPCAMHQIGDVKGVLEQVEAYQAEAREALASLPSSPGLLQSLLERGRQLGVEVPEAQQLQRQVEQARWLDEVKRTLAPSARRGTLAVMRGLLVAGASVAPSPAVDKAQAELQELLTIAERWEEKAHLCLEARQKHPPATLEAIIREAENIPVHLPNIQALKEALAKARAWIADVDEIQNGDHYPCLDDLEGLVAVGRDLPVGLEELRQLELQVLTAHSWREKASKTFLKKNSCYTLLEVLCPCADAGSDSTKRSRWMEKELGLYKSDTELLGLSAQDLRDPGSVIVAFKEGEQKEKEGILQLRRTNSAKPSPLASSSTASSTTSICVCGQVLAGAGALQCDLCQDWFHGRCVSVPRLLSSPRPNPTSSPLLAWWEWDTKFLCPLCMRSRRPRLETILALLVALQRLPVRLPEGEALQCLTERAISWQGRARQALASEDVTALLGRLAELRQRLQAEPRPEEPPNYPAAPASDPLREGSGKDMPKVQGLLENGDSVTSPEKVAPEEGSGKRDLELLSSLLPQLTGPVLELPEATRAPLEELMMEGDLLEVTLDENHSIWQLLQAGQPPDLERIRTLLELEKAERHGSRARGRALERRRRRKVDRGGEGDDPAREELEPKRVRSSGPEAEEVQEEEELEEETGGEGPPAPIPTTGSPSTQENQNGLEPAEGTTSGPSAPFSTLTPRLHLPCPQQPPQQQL

[35] = Volume of distribution at steady state in Sprague-Dawley rat at 10 mg/kg, po measured upto 24 hrs; assay type: ADME, organism-based; conditions: in vivo
Mus musculus [36] = test: Anti-myocardial remodeling function in isoproterenol-induced C57BL/6 mouse heart injury model assessed as reversal of pathological damage at 20 to 50 mg/kg by one-time gavage for 21 days by Masson staining and Sirius Red staining based analysis; assay type: functional, organism-based; conditions: dose 20-50 mg/kg, time 21.0 day
[37] = biological target: T1, Lysine-specific demethylase 5B (Homo sapiens, UniProt Q9UGL1); test: Inhibition of KDM5B (unknown origin) at 10 uM incubated for 30 mins by HRTF assay relative to control
T1 sequence (Q9UGL1 whole entry): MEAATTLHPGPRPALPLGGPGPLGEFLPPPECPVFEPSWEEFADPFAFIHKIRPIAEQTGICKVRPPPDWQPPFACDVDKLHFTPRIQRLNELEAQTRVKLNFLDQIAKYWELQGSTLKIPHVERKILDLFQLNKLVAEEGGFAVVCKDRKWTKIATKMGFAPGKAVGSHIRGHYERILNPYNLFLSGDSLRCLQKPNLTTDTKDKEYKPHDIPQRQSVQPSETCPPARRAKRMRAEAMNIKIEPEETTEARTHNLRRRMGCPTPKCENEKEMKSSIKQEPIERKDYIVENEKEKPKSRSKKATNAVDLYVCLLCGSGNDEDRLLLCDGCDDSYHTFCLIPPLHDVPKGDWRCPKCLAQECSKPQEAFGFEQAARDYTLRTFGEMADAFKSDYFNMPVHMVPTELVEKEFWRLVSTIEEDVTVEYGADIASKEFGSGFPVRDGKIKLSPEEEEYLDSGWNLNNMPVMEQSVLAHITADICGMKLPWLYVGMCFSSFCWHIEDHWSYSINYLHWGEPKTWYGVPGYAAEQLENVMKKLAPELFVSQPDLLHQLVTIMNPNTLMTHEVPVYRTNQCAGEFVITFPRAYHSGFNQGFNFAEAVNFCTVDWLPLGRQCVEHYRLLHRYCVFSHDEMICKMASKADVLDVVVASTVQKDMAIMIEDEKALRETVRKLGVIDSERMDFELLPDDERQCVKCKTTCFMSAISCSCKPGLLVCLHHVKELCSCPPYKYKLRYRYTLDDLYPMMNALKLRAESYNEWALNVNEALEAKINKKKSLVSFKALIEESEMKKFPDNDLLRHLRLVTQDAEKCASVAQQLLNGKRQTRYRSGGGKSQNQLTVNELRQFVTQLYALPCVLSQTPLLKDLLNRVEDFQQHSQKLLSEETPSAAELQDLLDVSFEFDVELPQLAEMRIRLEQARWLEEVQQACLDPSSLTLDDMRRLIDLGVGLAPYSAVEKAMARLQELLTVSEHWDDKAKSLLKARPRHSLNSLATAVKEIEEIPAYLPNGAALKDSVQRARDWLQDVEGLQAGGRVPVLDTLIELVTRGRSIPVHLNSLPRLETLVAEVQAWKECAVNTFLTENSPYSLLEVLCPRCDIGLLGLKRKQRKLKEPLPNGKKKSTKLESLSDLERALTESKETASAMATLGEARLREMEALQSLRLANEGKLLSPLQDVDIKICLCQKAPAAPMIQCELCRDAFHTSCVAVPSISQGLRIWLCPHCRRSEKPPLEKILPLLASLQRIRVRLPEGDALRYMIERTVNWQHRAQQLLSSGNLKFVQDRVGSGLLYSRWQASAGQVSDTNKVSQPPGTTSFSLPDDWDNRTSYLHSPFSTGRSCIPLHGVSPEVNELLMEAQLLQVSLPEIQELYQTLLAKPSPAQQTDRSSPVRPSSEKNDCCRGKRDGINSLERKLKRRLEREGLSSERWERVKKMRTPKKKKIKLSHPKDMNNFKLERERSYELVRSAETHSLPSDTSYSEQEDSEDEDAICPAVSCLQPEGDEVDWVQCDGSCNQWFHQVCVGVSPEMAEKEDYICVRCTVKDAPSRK

[38] = biological target: T1, Lysine-specific demethylase 5B; test: Inhibition of KDM5B (unknown origin) incubated for 30 mins by HRTF assay
[39] = Acute toxicity in C57BL/6 mouse assessed as effect on liver at 2 g/Kg by hematoxylin and eosin staining based histopathological analysis; assay type: tissue-based; conditions: in vivo, 2000 mg/kg
Mus musculus [40] = test: Anti-myocardial remodeling function in isoproterenol-induced C57BL/6 mouse model assessed as increase in shortening fraction at 50 mg/kg by one-time gavage for 21 days; assay type: functional; conditions: time 21 day
[41] = Clearance in Sprague-Dawley rat at 10 mg/kg, po measured upto 24 hrs; assay type: ADME, organism-based; conditions: in vivo
Mus musculus [42] = test: Anti-myocardial remodeling function in isoproterenol-induced C57BL/6 mouse model assessed as decrease in cardiac hypertrophy ANP protein at 20 mg/kg by one-time gavage for 21 days relative to control; assay type: functional; set-up: scale not given: the % may be the effect or the level left; conditions: time 21 day
[43] = AUC in Sprague-Dawley rat at 2 mg/kg, iv measured upto 24 hrs; assay type: ADME, organism-based; set-up: dose 2 mg/kg, time < 24 hrs, route iv; conditions: in vivo
[44] = test system: Fibroblast of cardiac tissue; test: Reversal of Ang II-induced increase in collagen I level in neonatal rat cardiac fibroblasts by Western blot analysis; assay type: functional, cell-based
[45] = Acute toxicity in C57BL/6 mouse assessed as body weight at 2 g/Kg by one-time gavage measured after 2 weeks; conditions: in vivo, po, 2000 mg/kg, 336 h
[46] = test system: Fibroblast of cardiac tissue; test: Reversal of Ang II-induced decrease in H3K4me3 level in neonatal rat cardiac fibroblasts by immunofluorescence staining assay; assay type: functional, cell-based

Question: With `CC(C)c1cc(C(=O)N2CC[C@@H](NC(=O)NC3CC3)C2)n[nH]1` as the molecule, how does the bioavailability [1] read?
Answer: 42.4%

Question: What about the Activity [2] of the same molecule?
Answer: Active

Question: What about the Activity [3] of the same molecule?
Answer: Non-Toxic

Question: What about the Tmax [4] of the same molecule?
Answer: 24 min

Question: What about the Activity [5] of the same molecule?
Answer: Active

Question: What about the viability at 48 h, 10 µM [6] of the same molecule?
Answer: 90%

Question: What about the Activity (Mus musculus [7]) of the same molecule?
Answer: 44%

Question: And the Activity [8]?
Answer: Non-Toxic

Question: And the Ratio (Mus musculus [9])?
Answer: 0.89

Question: What about the Activity (Mus musculus [10]) of the same molecule?
Answer: 54%

Question: What about the Ratio [11] of the same molecule?
Answer: 0.77

Question: And the half-life [12]?
Answer: 144 min

Question: And the viability at 48 h, 10 µM [13]?
Answer: 90%

Question: And the Ratio [14]?
Answer: 0.6

Question: What about the Cmax [15] of the same molecule?
Answer: 710 ng/mL

Question: And the IC50 [16]?
Answer: 79 nM

Question: What about the Vd [17] of the same molecule?
Answer: 2.7 L/kg

Question: And the Activity [18]?
Answer: Non-Toxic

Question: What about the Activity (Mus musculus [19]) of the same molecule?
Answer: 71%

Question: And the Activity (Mus musculus [20])?
Answer: 83%

Question: What about the AUC at 24 h [21] of the same molecule?
Answer: 1040 ng·h/mL

Question: And the Ratio (Mus musculus [22])?
Answer: 0.93

Question: And the Cmax [23]?
Answer: 1230 ng/mL

Question: And the Activity (Mus musculus [24])?
Answer: 75%

Question: What about the Activity (Mus musculus [25]) of the same molecule?
Answer: 77%

Question: What about the Activity [26] of the same molecule?
Answer: Non-Toxic

Question: And the Ratio (Mus musculus [27])?
Answer: 0.93

Question: And the half-life [28]?
Answer: 24 min

Question: And the Activity [29]?
Answer: Active

Question: What about the Activity [30] of the same molecule?
Answer: Non-Toxic

Question: What about the Activity [31] of the same molecule?
Answer: Active

Question: And the Ratio (Mus musculus [32])?
Answer: 0.89

Question: And the clearance [33]?
Answer: 70 mL/min/kg

Question: What about the IC50 [34] of the same molecule?
Answer: 353 nM

Question: What about the Vdss [35] of the same molecule?
Answer: 33.4 L/kg

Question: And the Activity (Mus musculus [36])?
Answer: Active

Question: And the inhibition [37]?
Answer: 100%

Question: What about the IC50 [38] of the same molecule?
Answer: 44 nM

Question: And the Activity [39]?
Answer: Non-Toxic

Question: What about the Activity (Mus musculus [40]) of the same molecule?
Answer: 50%

Question: And the CL/F [41]?
Answer: 165 mL/min/kg

Question: And the Activity (Mus musculus [42])?
Answer: 85%

Question: What about the AUC at 24 h [43] of the same molecule?
Answer: 480 ng·h/mL

Question: What about the Activity [44] of the same molecule?
Answer: Active

Question: And the Activity [45]?
Answer: Non-Toxic

Question: And the Activity [46]?
Answer: Active
